From patent US9062095B2, “Mutant double cyclized receptor peptides inhibiting β1-adrenoceptor antibodies” (JULIUS-MAXIMILIANS-UNIVERSTITAT-WURZBURG, priority 2007, dated 2015)
Positions of bridges follow the written chain, without caps; N, C: chain ends.

Tests used:
anti-β1-ECII antibodies = experiment: ELISA-competition assay: peptide preincubated with sera/IgG of immunized antibody-positive rats, linear 25AA Cys/Cys-peptide as antigen; format: binding, rat; parameters: blocking capacity (% of blocked versus non-blocked ELISA-reactivity): concentration or dose not given beside the values; details: for blocking-efficiency versus unblocked sera: n=6 sera, incubation 12-14 h, mean ±SEM (FIG. 27); for decrease in circulating free anti-beta1-ECII antibodies: n=6 sera (FIG. 11)
Procedure: FIG. 9 is a diagram composed of two major-(upper and lower) panels resuming the blocking effect of both 25AA- and 18AA-cyclopeptide mutants having a Gln closure site, as well as 18AA cyclopeptide mutants having a D-Glu closure site after preincubation (12 h, 4° C., rotating incubation) with sera isolated from 69 different immunized antibody-positive rats in an ELISA-competition assay using the 3 Cys-containing linear 25AA Cys/Cys-peptide as an antigen. The upper panel depicts rat sera preferentially reacting with the Cys/Ser mutated cyclopeptides (type1 reaction, n=64), separated in cyc25AA(Gln)-peptides (left) and cyc18AA(Gln and D-Glu)-peptides (right). The lower panel depicts the rat sera reacting with both the Cys/Ser and the Ser/Cys mutated cyclopeptides (type2 reaction, n=5), again separated in the results obtained with cyc25AA(Gln)-peptides (left) and cyc18AA(Gln and D-Glu)-peptides (right).
FIG. 11 is a diagram resuming the dose-dependent (x-axis, abscissa: fold molar excess of specific peptides) blocking capacity of various linear and cyclic beta1-ECII-peptides given in % of the unblocked antibody-titer (y-axis, ordinate), including 25AA Cys/Cys linear peptides (black squares), 25AA Cys/Ser cyclopeptide mutants (white squares), 18AA Cys/Cys cyclo-peptides (black diamonds), 18AA Cys/Ser cyclopeptide mutants (white diamonds), and 18AA Cys/Ser linear peptide mutants (vertically hatched diamonds) in an ELISA competition assay performed with sera from n=6 randomly chosen immunized antibody-positive rats.
FIGS. 27A and B depict the in vitro blocking (=neutralization) capacity of various cysteine-containing cyclopeptide variants of the second extracellular loop (ECII) of the human beta1-adrenergic receptor, determined by testing n=6 individual sera (27A) of immunized beta1-ECII-antibody-positive rats after over-night incubation with the indicated cyclopeptides (12-14 h, 4° C.) by ELISA. Columns in 27A represent the receptor-antibody blocking efficiency of the indicated cyclopeptides in % of the antibody-(ELISA-)signals obtained with unblocked antibody-positive rat sera. Columns in 27B represent the mean blocking efficiency for each cyclopeptide, error bars indicate ±SEM.
The blocking capacity of β1-ECII-18AA cyclopeptide mutants (Cys13-Ser14 or Ser13-Cys14 mutation having an additional D-Glu-Gln exchange, e.g. at the ring closure site) was compared with the 3 Cys-containing 25AA or 18AA Cys/Cys cyclopeptides after preincubation (12 h, 4° C., rotating incubation over-night) of different numbers of sera from immunized antibody-positive rats in an ELISA-competition assay using the 3 Cys-containing linear 25AA Cys/Cys-peptide as an antigen. FIGS. 4, 5, and 7-10 show the results from measurements performed with sera of n=12 up to n=82 immunized antibody-positive rats using different cyclopeptides of the present invention.

[1] = test system: beta1-receptor antibodies; experiment: in vivo prevention study: five prophylactic peptide applications, serum antibody-titers by ELISA; parameters: species or system rat; details: 1.0 mg/kg body weight i.v., 4-weekly, prevention protocol (FIG. 12)
Procedure: FIG. 12 is a diagram resuming the in vivo blocking capacity of in total five (prophylatic) applications of various linear and cyclic beta1-ECII-peptides, started 3 months after the first immunization (and two subsequent beta1-ECII/GST-antigen-boosts, corresponding to a prevention protocol). Serum-titers of the beta1-receptor antibodies were determined before and 18-20 h after each peptide injection (abscissa, time in months) and are given in % of the corresponding antibody-titers of immunized untreated rats (y-axis, ordinate). The injected peptides were: 25AA Cys/Cys linear peptide (black squares), […] (white squares), 18AA Cys/Cys cyclopeptide (black diamond), 18AA Cys/Ser cyclopeptide mutant (white diamonds), and the 18AA Cys/Ser linear peptide mutant (vertically hatched diamonds). […] Black circles indicate antibody-titers of untreated regularly (every 4 weeks) immunized animals serving as reference, set at 100%.
The in-vivo blocking effects of both 25AA and 18AA Cys/Ser mutant cyclopeptides (with a Gln closure site), the 18AA Ser/Cys mutant cyclopeptide, and a mutated linear 18AA Cys/Ser peptide were analyzed after intravenous (i.v.) injection of 1.0 mg/kg body weight (Bw) of each construct into freshly immunized antibody-positive rats (i.e., use of cyclo-peptides in a kind of “prevention” study), with a first cyclopeptide-application 3 months after the initial immunization (and two subsequent boost at months 2 and 3). In total, five prophylactic applications of the various constructs were given at 4-weekly intervals, always two weeks after the monthly continued antigen boost. Sera were drawn 18-20 hours after i.v. injection and assayed for reactivity by ELISA using the 3 Cys-containing linear 25AA Cys/Cys-peptide as an antigen (FIG. 12).

[2] = test system: anti-beta1-ECII antibody-secreting cells (ASC); experiment: ELISPOT-assay with B-cells from bone marrow or spleen of prophylactically treated rats; format: in vivo, rat; details: prophylactically treated versus untreated immunized rats, n=3-4 (FIG. 13)
Procedure: Cys/Ser, horizontally hatched columns). For the assays, ELIspot plates were coated overnight with the specific antigen (GST/beta1-ECII-FP) in 0.05 mol/1 Tris buffer, pH 9.4.; then the plates were washed 3 times and blocked with BSA for 3 hours at 37° C. Subsequently, the plates were incubated overnight at 37° C. with B-cells from either spleen or bone marrow (cultured in RPMI 1640/X-VIVO-15 medium supplemented with 10% fetal calf serum (FCS)) with 1×10^6 to 1×10^3 cells per well. After 12 hours the B-cells were discarded and the plates with the B-cell secreted IgG bound were washed several times (PBS/0.5° A) Tween) before the addition of alkaline phos-phatase conjugated secondary anti-rat IgG (0.3 μg/ml) to detect bound rat IgG. Then the plates were incubated for another 3 hours at 37° C., washed several times with PBS/0.5% Tween, and developed using LMP/BICP 5:1 (1 ml per well; “LMP” means low melting agarose, and “BICP” means 5-bromo-4-chloro-3-indolyl phosphate p-toluidine salt, a blue-colored dye) allowing for a quantification of the blue spots obtained, with each spot representing an antigen-specific IgG secreting spleen or bone-marrow cell.
This finding was confirmed by ELIspot analysis of bone marrow and spleen cell preparations of selected cyclopeptide-treated versus untreated immunized rats (n=3).

[3] = test system: beta1-ECII receptor antibody-titers; experiment: in vivo therapy study cyc22AA versus cyc18AA Cys/Ser in rats immunized over 8 months: antibody-titers; parameters: species or system rat; details: injections every 4 weeks, start at month 8; mean ±SEM (FIG. 28A)
Source text: FIGS. 28A and B depict the in vivo blocking (=neutralization) capacity of two cysteine-containing 18AA or 22AA cyclopeptide-mutants of the second extracellular loop (ECII) of the human beta1-adrenergic receptor upon therapeutic injection of the different constructs into rats regularly immunized since 8 months (first=basic immunization followed by 7 antigen-boosts every 4 weeks). The effects of four to five subsequent cyclopeptide-injections every 4 weeks are shown. FIG. 28A depicts the mean values±SEM of each of the treated groups of immunized beta1-ECII-antibody positive cardiomyopathic rats (animal number per group is given in the legend). […] The remaining receptor antibody-titers after each injection in % of the antibody-titers at start therapy (month 8) are depicted (columns). Error bars indicate ±SEM. Numbers in columns indicate the number of (subsequent) monthly injection.
FIG. 28B depicts the time course of antibody-titers after 4 subsequent cyclopeptide-injections, determined before and 20-22 hours after application of the indicated constructs. Values are given in percent of increase or decrease in the respective antibody-titers after each cyclopeptide-injection compared with the antibody-titer determined at start of therapy (month 8). […]

[4] = test system: immunized beta1-ECII-antibody positive cardiomyopathic rats; experiment: echocardiographic follow-up of the cyc22AA versus cyc18AA therapy study; format: in vivo, rat; details: after 4 months of treatment, 1.0 mg/kg Bw (FIG. 29)
Source text: FIG. 29A is a diagram showing the time course (month 0 to 12) of the internal end-systolic and end-diastolic left ventricular diameters (LVES, LVED) of GST/beta1-ECII-immunized untreated (black circles) versus GST/beta1-ECII-immunized animals treated with the indicated various cyclopeptides (see legend) as determined by 2D- and M-mode echocardiography (echocardiographic system: Visual Sonics, Vevo 770 (version V2.2.3), equipped with a 15-17.5 MHz transducer), whereby LVES/LVED is left ventricular end-systolic diameter/left ventricular end-diastolic diameter.
FIG. 29B is a diagram depicting the time course (month 0 to 12) of the “Cardiac index” (CI) in ml/min/g (body weight) as determined by 2D- and Doppler-echocardiography (echocardiographic system see above).
In addition, echocardiographic follow-up data after 4 months of treatment also show a superiority of cyc22AA mutants compared with the cyc18AA Cys/Ser mutant regarding their cardioprotective effects in vivo, as assessed by the decrease in both left ventricular end-diastolic (LVED) and end-systolic (LVES) diameters (FIG. 29A), and an increase in “Cardiac Index” (CI, given in ml/min/g body weight; see FIG. 29B), as determined by 2 dimensional- and Doppler-echocardiography using a Visual Sonics echocardiographic system (Vevo 770, version V2.2.3), equipped with a 17.5 MHz transducer).

Substance | blocking capacity (% of blocked versus non-blocked ELISA-reactivity) (anti-β1-ECII antibodies; IgG from n=78 immunized antibody-positive rats, preincubation 12 h, 4° C., mutants with D-Glu ring closure (FIG. 7), ±SEM) | blocking-efficiency versus unblocked sera (anti-β1-ECII antibodies; 4° C.) | blocking efficiency (% of blocked versus non-blocked ELISA reactivity) (anti-β1-ECII antibodies; type1 sera (93%, n=64 of 69), FIG. 9 upper panel, ±SEM) | blocking capacity (% of blocked versus non-blocked ELISA reactivity) (anti-β1-ECII antibodies; type 2 sera (7%, n=5 of 69), FIG. 9 lower panel, ±SEM) | antibody-titer decrease after 5 injections, compared with untreated immunized animals [1] | number of specific anti-beta1-ECII antibody-secreting cells (ASC) in spleen and bone marrow [2] | decrease in circulating free anti-beta1-ECII antibodies (anti-β1-ECII antibodies; 8-fold molar excess of peptide) | decrease in circulating free anti-beta1-ECII antibodies (anti-β1-ECII antibodies; 20-fold molar excess of peptide) | decrease in circulating free anti-beta1-ECII antibodies (anti-β1-ECII antibodies; 80-fold molar excess of peptide) | antibody-titer remaining after 4 injections in percent of the titer at start of therapy [3] | cardioprotective effects in vivo (decrease in LVED and LVES diameters, increase in Cardiac Index) [4]
25AA Cys/Cys cyclopeptides: 3 Cys-containing β1-ECII-25AA Cys/Cys cyclopeptide (β1-ECII-CP of WO 2006/103101) (cyclo(ARAESDEARRCYNDPKCCDFVTNRQ); disulfide (positions not given here)) [reference compound] | 67±2% | 73.4±5.0% | 65±2% | 72±5% | 87.7±2% | significant decrease | – | – | – | – | –
Ala-Asp-Glu-Ala-Arg-Arg-Cys-Tyr-Asn-Asp-Pro-Lys-Cys-Ser-Asp-Phe-Val-Gln (cyclo(ADEARRCYNDPKCSDFVQ); disulfide 7-13 (inferred)) [linear 18AA Cys/Ser peptides, reference compound] | – | – | – | – | 4.5±11% | no effect | 24% | 35% | about 50% | – | –
Cyclo-Arg-Ala-Glu-Ser-Asp-Glu-Ala-Arg-Arg-Cys-Tyr-Asn-Asp-Pro-Lys-Cys-Ser-Asp-Phe-Val-Thr-Gly (cyclo(RAESDEARRCYNDPKCSDFVTG); disulfide 10-16 (inferred)) [cyc22AA Cys/Ser] | – | 74.9±5.0% | – | – | – | – | – | – | – | 9.0±2.2% | superiority
